{"source": "patent US9969979B2", "about": "“Methods for producing cells having a phenotype of a primary human hepatocytes and compositions” (The Governors of the University of Alberta, priority 2012, dated 2018)", "tested_on": "Huh7.5 cells", "assay": "Quantitative RT-PCR of hepatocyte differentiation markers in cultured Huh7.5 cells", "format": "cell-based, human", "settings": "Huh7.5 cells grown 3 weeks, relative to FBS", "protocol": "RNA was isolated from cells using Trizol, according to the instructions of the manufacturer. cDNA was produced from the RNA using Quantitect Reverse Transcription kit (Qiagen). Gene specific primer-probe sets were designed by Applied Biosystems. An Applied Biosystems 7900HT Fast Real-Time PCR system was used for the quantitation of gene products. Gene expression was calculated relative to HPRT according to Pfaffl (Pfaffl M W. Nucleic Acids Res 29: e45, 2001).\nTo further evaluate the effect of culturing cells in HS-containing medium, and to assess whether these cells underwent differentiation to a primary hepatocyte-like cell, level of expression of hepatocyte differentiation marker were assayed at 7 days and 21 days after transfer of Huh7.5 cells into HS-supplemented medium. After 7 days only minor changes in hepatocyte markers were observed. (FIG. 3A) However, after 21 days, the expression of the hepatic differentiation markers albumin and alpha1-antiTrypsin was increased approximately 4 fold in cells grown in human serum compared to FBS. The level of expression of these proteins is similar to the level of expression of human primary hepatocytes in culture.\nDMSO, (dimethyl sulfoxide) has been reported to induce growth arrest in HuH-7 or -derived cells, and other hepatoma cells. (Sainz et al. (2006) J Virol 80: 10253-10257). […]"}
{"compound": "C[S+](C)[O-]", "note": "[DMSO, dimethyl sulfoxide]", "values": [{"measurement": "Albumin expression", "value": "slight increase"}]}
